Results on three compounds are retold here after ChEMBL document CHEMBL1159326, “Three new homoisoflavanone glycosides from the bulbs of Ornithogalum caudatum” (J Nat Prod, 2002).

Experiment [1] relates to P388. In words: Antitumor activity in mouse P388 cells. It counts as functional, cell-based.
Experiment [2] concerns A549. In words: Antitumor activity in human A549 cells. In kind it is functional, cell-based.

Structures are written as SMILES. Activity calls are given as the source filed them. The calls are words filed in the database; no cut-off is given here.

With `COc1ccc(C[C@]2(O)COc3cc(OC)cc(O[C@@H]4O[C@H](CO)[C@@H](O)[C@H](O)[C@H]4O[C@@H]4O[C@@H](C)[C@H](O)[C@@H](O)[C@H]4O)c3C2=O)cc1`, the outcome in experiment [1] and in experiment [2] was inactive.

On to `COc1ccc(C[C@]2(O)COc3cc(OC)cc(O[C@@H]4O[C@H](CO)[C@@H](O)[C@H](O)[C@H]4O)c3C2=O)cc1`, for which the result in experiment [1] and in experiment [2] was inactive.

In the case of `COc1ccc(C[C@]2(O)COc3cc(OC)cc(O[C@@H]4O[C@H](CO[C@@H]5O[C@@H](C)[C@H](O)[C@@H](O)[C@H]5O)[C@@H](O)[C@H](O)[C@H]4O)c3C2=O)cc1`, the result in experiment [1] and in experiment [2] was inactive.
